Earlier results, collected in patent US20250144314A1, “VITAMIN K1 INJECTION DEVICE KIT” (ORBICULAR PHARMACEUTICAL TECHNOLOGIES PRIVATE LIMITED, priority 2022, published 2025).

Conditions: estimate

CC1=C(C/C=C(\C)CCC[C@H](C)CCC[C@H](C)CCCC(C)C)C(=O)c2ccccc2C1=O [vitamin K, Phytonadione]
absorbed vitamin K excreted from the body: over 60%
